From ChEMBL document CHEMBL1133535, “Pyrido[2,3-d]pyrimidin-7-one inhibitors of cyclin-dependent kinases” (J Med Chem, 2000)

Key:
[1] = biological target: Cyclin-dependent kinase 4/cyclin D (Homo sapiens, UniProt P11802); assay: Inhibition of Cyclin-dependent kinase 4-cyclin D; format: protein-complex assay
[2] = biological target: Cyclin-dependent kinase 1/cyclin B (Homo sapiens, UniProt P06493); assay: Inhibition of Cyclin-dependent kinase 1-cyclin B; format: protein-complex assay
[3] = test system: HCT-116; assay: Inhibition of HCT116 human colon carcinoma cell proliferation; format: functional, cell-based
[4] = biological target: Fibroblast growth factor receptor (Homo sapiens, UniProt P22607+P11362+P22455+P21802); assay: Inhibition of Fibroblast growth factor receptor (FGFr); format: protein assay
[5] = biological target: Cyclin-dependent kinase 2/cyclin A (Homo sapiens, UniProt P24941); assay: Inhibition of Cyclin-dependent kinase 2-cyclin A; format: protein-complex assay
[6] = biological target: Cyclin-dependent kinase 2/cyclin E (Homo sapiens, UniProt P24941); assay: Inhibition of Cyclin-dependent kinase 2-cyclin E; format: protein-complex assay
[7] = biological target: Proto-oncogene tyrosine-protein kinase Src (Homo sapiens, UniProt P12931); assay: Inhibition of c-Src tyrosine kinase
Sequence of Proto-oncogene tyrosine-protein kinase Src (P12931 2-536 limits assumed): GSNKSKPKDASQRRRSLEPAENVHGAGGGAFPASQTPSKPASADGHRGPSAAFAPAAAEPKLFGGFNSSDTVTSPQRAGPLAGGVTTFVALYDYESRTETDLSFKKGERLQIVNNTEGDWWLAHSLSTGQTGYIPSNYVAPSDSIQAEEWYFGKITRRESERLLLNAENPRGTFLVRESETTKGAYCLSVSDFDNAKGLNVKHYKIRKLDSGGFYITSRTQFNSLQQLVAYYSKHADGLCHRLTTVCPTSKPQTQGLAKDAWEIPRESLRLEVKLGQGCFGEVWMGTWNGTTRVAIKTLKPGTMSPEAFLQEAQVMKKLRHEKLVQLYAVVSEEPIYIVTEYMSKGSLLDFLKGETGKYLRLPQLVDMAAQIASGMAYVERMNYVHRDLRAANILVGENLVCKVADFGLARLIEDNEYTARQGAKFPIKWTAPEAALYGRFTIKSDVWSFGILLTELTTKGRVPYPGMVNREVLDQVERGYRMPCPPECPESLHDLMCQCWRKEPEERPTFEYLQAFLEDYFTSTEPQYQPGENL

| Compound | IC50 [1] [nM] | further results |
| --- | --- | --- |
| CCn1c(=O)ccc2cnc(N(C)c3ccccc3)nc21 | > 40000 | – |
| CN1CCN(c2ccc(Nc3ncc4ccc(=O)n(CCOCc5ccccc5)c4n3)cc2)CC1 | 2100 | – |
| CC(C)n1c(=O)ccc2cnc(Nc3ccc(N4CCN(C)CC4)cc3)nc21 | – | IC50 [4]: 70 nM |
| CN1CCN(c2ccc(Nc3ncc4ccc(=O)n(C5CCCCC5)c4n3)cc2)CC1 | 4 | IC50 [4]: 51 nM; IC50 [6]: 20 nM |
| CCn1c(=O)ccc2cnc(Nc3ccncc3)nc21 | 1170 | – |
| CCn1c(=O)ccc2cnc(Nc3cccc(OC)c3)nc21 | > 40000 | – |
| CCn1c(=O)ccc2cnc(Nc3cccc(OC(F)(F)C(F)F)c3)nc21 | – | IC50 [4]: 44200 nM |
| CCOCCn1c(=O)ccc2cnc(Nc3ccccc3)nc21 | 7800 | – |
| CCCn1c(=O)ccc2cnc(Nc3ccccc3)nc21 | – | IC50 [4]: 6600 nM |
| CN1CCN(c2ccc(Nc3ncc4ccc(=O)n(C5CC5)c4n3)cc2)CC1 | 140 | – |
| CCCCn1c(=O)ccc2cnc(Nc3ccccc3)nc21 | – | IC50 [2]: 2000 nM; IC50 [4]: 5290 nM |
| O=c1ccc2cnc(Nc3ccccc3)nc2n1-c1ccccc1 | 1670 | – |
| CN1CCN(c2ccc(Nc3ncc4ccc(=O)n(C5CCCC5)c4n3)cc2)CC1 | 9 | – |
| CCN(CC)CCOc1ccc(Nc2ncc3ccc(=O)n(C4CCCCC4)c3n2)cc1 | 11 | – |
| CC(C)Cn1c(=O)ccc2cnc(Nc3ccccc3)nc21 | 297 | – |
| CCn1c(=O)ccc2cnc(NCc3ccccc3)nc21 | > 40000 | – |
| CCn1c(=O)ccc2cnc(Nc3ccc(-n4cccc4)cc3)nc21 | 2750 | – |

More lines, in order of falling IC50 [1], values ahead:

| IC50 [1] [nM] | Compound | further results |
| --- | --- | --- |
| 31000 | COC(=O)Cn1c(=O)ccc2cnc(Nc3ccccc3)nc21 | – |
| 13500 | O=c1ccc2cnc(Nc3ccccc3)nc2n1CC1CCCCC1 | – |
| 4320 | CCn1c(=O)ccc2cnc(NC(C)C)nc21 | – |
| 4150 | COCn1c(=O)ccc2cnc(Nc3ccccc3)nc21 | – |
| 4080 | CCn1c(=O)ccc2cnc(Nc3ccc(OC)c(OC)c3)nc21 | – |
| 2860 | COCCn1c(=O)ccc2cnc(Nc3ccccc3)nc21 | – |
| 2330 | CCn1c(=O)ccc2cnc(Nc3ccc(OCCOC)cc3)nc21 | – |
| 1820 | CCn1c(=O)ccc2cnc(Nc3ccc(O)c(OC)c3)nc21 | – |
| 1650 | CN1CCN(c2ccc(Nc3ncc4ccc(=O)n(CC(O)CO)c4n3)cc2)CC1 (stereo not drawn) | – |
| 1400 | CCN(CC)c1ccc(Nc2ncc3ccc(=O)n(CC)c3n2)cc1 | – |
| 900 | CCn1c(=O)ccc2cnc(Nc3ccc(N4CCC(CCCO)CC4)cc3)nc21 | – |
| 620 | CCn1c(=O)ccc2cnc(Nc3ccccc3)nc21 | IC50 [4]: 3295 nM; IC50 [7]: 21000 nM |
| 585 | CCn1c(=O)ccc2cnc(Nc3ccc(O)cc3)nc21 | – |
| 450 | CCN(CC)CCOc1ccc(Nc2ncc3ccc(=O)n(C4CC5CCC4C5)c3n2)cc1 (stereo not drawn) | – |
| 330 | CCn1c(=O)ccc2cnc(Nc3ccc(OCCN(C)C)cc3)nc21 | – |
| 300 | CCn1c(=O)ccc2cnc(Nc3ccc(N4CCCCC4)cc3)nc21 | – |
| 190 | CCC(C)n1c(=O)ccc2cnc(Nc3ccccc3)nc21 (stereo not drawn) | – |
| 175 | CN1CCN(c2ccc(Nc3ncc4ccc(=O)n(-c5ccccc5)c4n3)cc2)CC1 | – |
| 159 | CC(C)CCn1c(=O)ccc2cnc(Nc3ccccc3)nc21 | – |
| 145 | CC(C)n1c(=O)ccc2cnc(Nc3ccccc3)nc21 | – |
| 34 | O=c1ccc2cnc(Nc3ccc(N4CCC(CCCO)CC4)cc3)nc2n1C1CCCC1 | – |
| 13 | CC(C)CCn1c(=O)ccc2cnc(Nc3ccc(N4CCN(C)CC4)cc3)nc21 | – |
| 8 | O=c1ccc2cnc(Nc3ccc(N4CCC(CCCO)CC4)cc3)nc2n1C1CC2CCC1C2 (stereo not drawn) | IC50 [2]: > 40000 nM; IC50 [3]: 213 nM; IC50 [4]: 8620 nM; IC50 [5]: 209 nM; IC50 [6]: 165 nM |
| 6 | CN1CCN(c2ccc(Nc3ncc4ccc(=O)n(C5CC6CCC5C6)c4n3)cc2)CC1 (stereo not drawn) | – |
| 4 | CCN(CC)CCOc1ccc(Nc2ncc3ccc(=O)n(C4CCCCCC4)c3n2)cc1 | – |
| 0.7 | CCN(CC)CCOc1ccc(Nc2ncc3ccc(=O)n(C4CCCC4)c3n2)cc1 | – |
